7 compounds from ChEMBL document CHEMBL3217755, “Design, synthesis and biological evaluation of biphenyl urea derivatives as novel VEGFR-2 inhibitors” (Medchemcomm, 2013) can be followed below.

The structures appear in SMILES notation.

One assay concerns HeLa. The assay is described as follows: Antiproliferative activity against human HeLa cells after 48 hrs by MTT assay. It is filed as functional, cell-based. On the technique in general: Formazan colour is commonly taken as a measure of viable cells.
A short description of assay [1]: Antiproliferative activity against human SMMC7721 cells after 48 hrs by MTT assay. It is filed as functional, cell-based. Conditions: SMMC-7721, 48 h.
A further assay has as its system MDA-MB-231. The assay is described as follows: Antiproliferative activity against human MDA-MB-231 cells after 48 hrs by MTT assay. To be noted: MDA-MB-231, 48 h. It is filed as functional, cell-based.
For another assay, the system named is K562. The assay is described as follows: Antiproliferative activity against human K562 cells after 48 hrs by MTT assay. To be noted: K562, 48 h.
A further assay has as its system SH-SY5Y. The assay is described as follows: Antiproliferative activity against human SH-SY5Y cells after 48 hrs by MTT assay. It is filed as functional, cell-based.
The next assay concerns A549. Description: Antiproliferative activity against human A549 cells after 48 hrs by MTT assay. The assay is classed as functional, cell-based. To be noted: A549, 48 h.
The nature of assay [2]: Antiproliferative activity against human SGC7901 cells after 48 hrs by MTT assay. It is filed as functional, cell-based. Conditions: SGC-7901, 48 h.
The subject of a further assay is LoVo. Description: Antiproliferative activity against human LoVo cells after 48 hrs by MTT assay. It is filed as functional, cell-based.
For another assay, the system named is SK-BR-3. The assay is described as follows: Antiproliferative activity against human SK-BR-3 cells after 48 hrs by MTT assay. It is filed as functional, cell-based. To be noted: SK-BR-3, 48 h.

On to `COc1cc(-c2cc(NC(=O)Nc3ccc(OCCCN4CCOCC4)cc3C)cc(OC)c2OC)ccc1/C(C)=N/O`, for which the IC50 (as a rule, the concentration at which inhibition is half-maximal) in the assay on HeLa amounted to 243 µM; in assay [1] it was 33.3 µM; with MDA-MB-231 it was 49.2 µM; in the assay with K562, 15.8 µM; with SH-SY5Y it was 18.4 µM; in the assay with A549, 23.7 µM.

In the case of `COc1cc(-c2cc(NC(=O)Nc3ccc(OCCN(C)C)cc3)cc(OC)c2OC)ccc1/C(C)=N/O`, the IC50 in the assay on HeLa is 63.2 µM; in [2], 34.2 µM; in the assay with MDA-MB-231, 35.2 µM; in the assay with K562, 8.58 µM; in the assay on SH-SY5Y, 6.2 µM.

As for `CCN(CC)CCOc1ccc(NC(=O)Nc2cc(OC)c(OC)c(-c3ccc(/C(C)=N/O)c(OC)c3)c2)cc1`, the IC50 in the assay on HeLa was found to be 13.4 µM; in [2], 58.1 µM; in assay [1], 36.4 µM; in the assay with MDA-MB-231, 20.3 µM; in the assay on K562, 1.29 µM; in the assay on LoVo, 48.4 µM. Further, the IC50 with SH-SY5Y was found to be 18.4 µM; in the assay on A549, 11.7 µM.

In the case of `COc1cc(-c2cc(NC(=O)Nc3ccc(OCCN4CCCC4)cc3)cc(OC)c2OC)ccc1/C(C)=N/O`, the IC50 in the assay on K562 was 4.81 µM; in the assay on LoVo it was 49.2 µM; in the assay with SK-BR-3, 38.9 µM.

With `COc1cc(-c2cc(NC(=O)Nc3ccc(OCCCN4CCOCC4)cc3)cc(OC)c2OC)ccc1/C(C)=N/O`, the IC50 with HeLa turned out to be 92.3 µM; in assay [2], 6.8 µM; in [1], 9.88 µM; in the assay on K562 it was 0.29 µM; in the assay on SH-SY5Y, 4.91 µM; in the assay on A549 it was 11.7 µM.

On to `CCN(CC)CCOc1ccc(C)c(NC(=O)Nc2cc(OC)c(OC)c(-c3ccc(/C(C)=N/O)c(OC)c3)c2)c1`, for which the IC50 with K562 turned out to be 1.25 µM; in the assay on SK-BR-3, 14.7 µM; in the assay on SH-SY5Y it was 43.5 µM; in the assay with A549 it was 11.2 µM.

As to `CNC(=O)c1cc(Oc2ccc(NC(=O)Nc3ccc(Cl)c(C(F)(F)F)c3)cc2)ccn1` [SORAFENIB], the IC50 was found to be 7.68 µM with HeLa; 102 µM in assay [2]; 9.86 µM in [1]; 5.21 µM in the assay with SK-BR-3; 3.36 µM with A549.
